Values of other authors, collected in patent US20240139480A1, “RETENTIVE DEVICES FOR GASTROINTESTINAL TRACT” (Teva Pharmaceutical Industries Ltd., priority 2021, published 2024).

Details: given as ester prodrug; extensive intestinal esterase degradation

CC(C)OC(=O)OCOP(=O)(CO[C@H](C)Cn1cnc2c(N)ncnc21)OCOC(=O)OC(C)C [Tenofovir disoproxil]
bioavailability: about 30%
